Two molecules from ChEMBL document CHEMBL4813981, “Synthesis and in vitro antibacterial activity of new aminothiazole-oximepiperidone cephalosporins” (2021) can be followed below.

Converted amounts (≈) assume the structure as drawn.

For experiment [1], the system named is Klebsiella pneumoniae. Description: Antibacterial activity against ESBLs positive Carbapenem-sensitive Klebsiella pneumoniae 17-5 assessed as reduction in bacterial growth in the presence of Avibactam. Format: functional.
The test system of experiment [2] is Klebsiella pneumoniae. Description: Antibacterial activity against ESBLs positive Carbapenem-sensitive Klebsiella pneumoniae 17-13 assessed as reduction in bacterial growth in the presence of Avibactam. Format: functional.
Experiment [3] has as its system Klebsiella pneumoniae. As to the kind of experiment: Antibacterial activity against ESBLs negative Carbapenem-sensitive Klebsiella pneumoniae 15-2 assessed as reduction in bacterial growth in the presence of Avibactam. Format: functional.
Experiment [4] concerns Klebsiella pneumoniae. As to the kind of experiment: Antibacterial activity against ESBLs negative Carbapenem-sensitive Klebsiella pneumoniae 17-16 assessed as reduction in bacterial growth in the presence of Avibactam. Format: functional.
Experiment [5] deals with Escherichia coli. Description: Antibacterial activity against ESBLs positive Carbapenem-sensitive Escherichia coli 17-8 assessed as reduction in bacterial growth in the presence of Avibactam. Format: functional.
Experiment [6] concerns Escherichia coli. As to the kind of experiment: Antibacterial activity against ESBLs positive Carbapenem-sensitive Escherichia coli 17-12 assessed as reduction in bacterial growth in the presence of Avibactam. Format: functional.
Experiment [7] concerns Escherichia coli. As to the kind of experiment: Antibacterial activity against ESBLs negative Carbapenem-sensitive Escherichia coli 17-4 assessed as reduction in bacterial growth in the presence of Avibactam. Format: functional.
In experiment [8] the test system is Escherichia coli. As to the kind of experiment: Antibacterial activity against ESBLs negative Carbapenem-sensitive Escherichia coli 17-9 assessed as reduction in bacterial growth in the presence of Avibactam. Format: functional.
For experiment [9], the system named is Escherichia coli. Description: Antibacterial activity against ESBLs negative Carbapenem-sensitive Escherichia coli 17-16 assessed as reduction in bacterial growth in the presence of Avibactam. Format: functional.
For experiment [10], the system named is Escherichia coli. Description: Antibacterial activity against ESBLs negative Carbapenem-sensitive Escherichia coli 17-20 assessed as reduction in bacterial growth in the presence of Avibactam. Format: functional.
Experiment [11] concerns Enterobacter cloacae. Description: Antibacterial activity against Enterobacter cloacae 17-1 assessed as reduction in bacterial growth in the presence of Avibactam. Format: functional.
Experiment [12] deals with Enterobacter cloacae. As to the kind of experiment: Antibacterial activity against Enterobacter cloacae 17-3 assessed as reduction in bacterial growth in the presence of Avibactam. Format: functional.
In experiment [13] the test system is Enterobacter cloacae. Description: Antibacterial activity against Enterobacter cloacae 17-9 assessed as reduction in bacterial growth in the presence of Avibactam. Format: functional.
Experiment [14] deals with Pseudomonas aeruginosa. Description: Antibacterial activity against Carbapenem- sensitive Pseudomonas aeruginosa 17-10 assessed as reduction in bacterial growth in the presence of Avibactam. Format: functional.
Experiment [15] deals with Pseudomonas aeruginosa. Description: Antibacterial activity against Carbapenem- sensitive Pseudomonas aeruginosa 17-30 assessed as reduction in bacterial growth in the presence of Avibactam. Format: functional.
Experiment [16] has as its system Klebsiella pneumoniae. Description: Bactericidal activity against ESBLs negative Carbapenem-sensitive Klebsiella pneumoniae 17-17 assessed as reduction in bacterial growth. Format: functional.
Experiment [17] concerns Klebsiella pneumoniae. As to the kind of experiment: Ratio of MBC to MIC for ESBLs positive Carbapenem-sensitive Klebsiella pneumoniae 17-6 assessed as reduction in bacterial growth. Format: functional.
The subject of experiment [18] is Klebsiella pneumoniae. As to the kind of experiment: Ratio of MBC to MIC for ESBLs negative Carbapenem-sensitive Klebsiella pneumoniae 17-16 assessed as reduction in bacterial growth. Format: functional.
Experiment [19] relates to Escherichia coli. Description: Ratio of MBC to MIC for ESBLs negative Carbapenem-sensitive Escherichia coli 17-7 assessed as reduction in bacterial growth. Format: functional.
The subject of experiment [20] is Escherichia coli. Description: Ratio of MBC to MIC for ESBLs positive Carbapenem-sensitive Escherichia coli 17-10 assessed as reduction in bacterial growth. Format: functional.
The test system of experiment [21] is Enterobacter cloacae. Description: Ratio of MBC to MIC for Enterobacter cloacae 17-3 assessed as reduction in bacterial growth. Format: functional.
Experiment [22] has as its system Klebsiella aerogenes. As to the kind of experiment: Ratio of MBC to MIC for Enterobacter aerogenes 17-1 assessed as reduction in bacterial growth. Format: functional.
In experiment [23] the test system is Klebsiella aerogenes. Description: Ratio of MBC to MIC for Enterobacter aerogenes 17-3 assessed as reduction in bacterial growth. Format: functional.
The test system of experiment [24] is Pseudomonas aeruginosa. As to the kind of experiment: Ratio of MBC to MIC for carbapenem-sensitive Pseudomonas aeruginosa 17-7 assessed as reduction in bacterial growth. Format: functional.
Experiment [25] concerns Pseudomonas aeruginosa. As to the kind of experiment: Ratio of MBC to MIC for carbapenem-sensitive Pseudomonas aeruginosa 17-10 assessed as reduction in bacterial growth. Format: functional.
Experiment [26] deals with Pseudomonas aeruginosa. As to the kind of experiment: Ratio of MBC to MIC for carbapenem-sensitive Pseudomonas aeruginosa 17-26 assessed as reduction in bacterial growth. Format: functional.
The test system of experiment [27] is Pseudomonas aeruginosa. Description: Ratio of MBC to MIC for carbapenem-sensitive Pseudomonas aeruginosa 17-29 assessed as reduction in bacterial growth. Format: functional.
Experiment [28] has as its system Pseudomonas aeruginosa. As to the kind of experiment: Ratio of MBC to MIC for Pseudomonas aeruginosa ATCC 27853 assessed as reduction in bacterial growth. Format: functional.
Experiment [29] deals with Klebsiella pneumoniae. As to the kind of experiment: Ratio of MBC to MIC for ESBLs positive Carbapenem-sensitive Klebsiella pneumoniae 17-12 assessed as reduction in bacterial growth in the presence of Avibactam. Format: functional.
For experiment [30], the system named is Klebsiella pneumoniae. Description: Ratio of MBC to MIC for ESBLs negative Carbapenem-sensitive Klebsiella pneumoniae 17-16 assessed as reduction in bacterial growth in the presence of Avibactam. Format: functional.
The subject of experiment [31] is Escherichia coli. Description: Ratio of MBC to MIC for ESBLs positive carbapenem-negative Escherichia coli 17-10 assessed as reduction in bacterial growth in the presence of Avibactam. Format: functional.
Experiment [32] relates to Enterobacter cloacae. Description: Ratio of MBC to MIC for Enterobacter cloacae 17-2 assessed as reduction in bacterial growth in the presence of Avibactam. Format: functional.
Experiment [33] has as its system Enterobacter cloacae. Description: Ratio of MBC to MIC for Enterobacter cloacae 17-8 assessed as reduction in bacterial growth in the presence of Avibactam. Format: functional.
The test system of experiment [34] is Klebsiella aerogenes. Description: Ratio of MBC to MIC for Enterobacter aerogenes 17-3 assessed as reduction in bacterial growth in the presence of Avibactam. Format: functional.
In experiment [35] the test system is Klebsiella aerogenes. As to the kind of experiment: Ratio of MBC to MIC for Enterobacter aerogenes 15-3 assessed as reduction in bacterial growth in the presence of Avibactam. Format: functional.
Experiment [36] has as its system Pseudomonas aeruginosa. As to the kind of experiment: Ratio of MBC to MIC for carbapenem-sensitive Pseudomonas aeruginosa 17-10 assessed as reduction in bacterial growth in the presence of Avibactam. Format: functional.
Experiment [37] deals with Pseudomonas aeruginosa. As to the kind of experiment: Ratio of MBC to MIC for carbapenem-sensitive Pseudomonas aeruginosa 17-29 assessed as reduction in bacterial growth in the presence of Avibactam. Format: functional.
The test system of experiment [38] is Acinetobacter baumannii. Description: Ratio of MBC to MIC for Acinetobacter baumannii NCTC 13304 assessed as reduction in bacterial growth in the presence of Avibactam. Format: functional.
Experiment [39] relates to Pseudomonas aeruginosa. As to the kind of experiment: Ratio of MBC to MIC for Pseudomonas aeruginosa ATCC 27853 assessed as reduction in bacterial growth in the presence of Avibactam. Format: functional.
Experiment [40] concerns Klebsiella aerogenes. As to the kind of experiment: Antibacterial activity against Enterobacter aerogenes 17-3 assessed as reduction in bacterial growth.
For experiment [41], the system named is Acinetobacter baumannii. As to the kind of experiment: Antibacterial activity against Carbapenem- resistant Acinetobacter baumannii 17-3 assessed as reduction in bacterial growth.
Experiment [42] deals with Acinetobacter baumannii. As to the kind of experiment: Antibacterial activity against Carbapenem- resistant Acinetobacter baumannii 17-11 assessed as reduction in bacterial growth.
Experiment [43] concerns Acinetobacter baumannii. Description: Bactericidal activity against Carbapenem- resistant Acinetobacter baumannii 17-3 assessed as reduction in bacterial growth. Format: functional.
For experiment [44], the system named is Enterobacter cloacae. As to the kind of experiment: Bactericidal activity against Enterobacter cloacae 17-3 assessed as reduction in bacterial growth. Format: functional.
Experiment [45] has as its system Enterobacter cloacae. Description: Bactericidal activity against Enterobacter cloacae 17-8 assessed as reduction in bacterial growth. Format: functional.
The subject of experiment [46] is Enterobacter cloacae. As to the kind of experiment: Bactericidal activity against Enterobacter cloacae 17-9 assessed as reduction in bacterial growth. Format: functional.

What is called MIC is the lowest concentration found to suppress growth. In general, MBC refers to the lowest tested concentration that kills the bacteria rather than only halting them. For the molecule `Nc1nc(/C(=N/OCc2cc(=O)c(O)cn2O)C(=O)N[C@@H]2C(=O)N3C(C(=O)O)=CCS[C@H]23)cs1`, the MIC in the experiment with Klebsiella pneumoniae [1] was 1 µg/mL; in the experiment on Klebsiella pneumoniae [2], no more than 0.03 µg/mL; with Klebsiella pneumoniae [3], no more than 0.03 µg/mL; in the experiment on Klebsiella pneumoniae [4] it was 0.06 µg/mL; in the experiment on Escherichia coli [5], 0.5 µg/mL; in the experiment with Escherichia coli [6], 0.25 µg/mL. Moreover, the MIC in the experiment on Escherichia coli [7] is 0.125 µg/mL; with Escherichia coli [8] it was 0.5 µg/mL; with Escherichia coli [9], 0.5 µg/mL; in the experiment with Escherichia coli [10] it was 0.06 µg/mL; with Enterobacter cloacae [11] it was 1 µg/mL; with Enterobacter cloacae [12], 2 µg/mL. Also, the MIC with Enterobacter cloacae [13] was 2 µg/mL; in the experiment on Pseudomonas aeruginosa [14], 2 µg/mL; with Pseudomonas aeruginosa [15] it was 0.25 µg/mL; with Klebsiella aerogenes [40], 2 µg/mL (≈ 3.93 µM); with Acinetobacter baumannii [41] it was greater than 64 µg/mL; in the experiment with Acinetobacter baumannii [42], greater than 64 µg/mL. Besides, in the experiment on Klebsiella pneumoniae [16], the MBC came to 0.25 µg/mL (≈ 0.492 µM). Also, the Ratio in the experiment with Klebsiella pneumoniae [17] came to 2; in the experiment with Klebsiella pneumoniae [18], 1; in the experiment on Escherichia coli [19] it was 2; in the experiment on Escherichia coli [20] it was 1; with Enterobacter cloacae [21] it was 1; with Klebsiella aerogenes [22], 2. Also, the Ratio is listed as 1 with Klebsiella aerogenes [23]; 4 in the experiment on Pseudomonas aeruginosa [24]; 4 with Pseudomonas aeruginosa [25]; greater than 8 in the experiment with Pseudomonas aeruginosa [26]; 4 with Pseudomonas aeruginosa [27]; 16 in the experiment on Pseudomonas aeruginosa [28]. The Ratio with Klebsiella pneumoniae [29] stood at 1; with Klebsiella pneumoniae [30], 1; in the experiment with Escherichia coli [31], 8; with Enterobacter cloacae [32] it was 8; with Enterobacter cloacae [33] it was 1; in the experiment with Klebsiella aerogenes [34], 1. For the same molecule, the Ratio with Klebsiella aerogenes [35] amounted to 1; in the experiment with Pseudomonas aeruginosa [36], 2; in the experiment with Pseudomonas aeruginosa [37], 8; in the experiment on Acinetobacter baumannii [38] it was 1; with Pseudomonas aeruginosa [39], 4.
Turning to `CC(C)(O/N=C(\C(=O)N[C@@H]1C(=O)N2C(C(=O)[O-])=C(C[n+]3ccccc3)CS[C@H]12)c1csc(N)n1)C(=O)O` [CEFTAZIDIME], the MBC with Acinetobacter baumannii [43] was 64 µg/mL (≈ 117 µM); in the experiment on Enterobacter cloacae [44], greater than 16 µg/mL; in the experiment on Enterobacter cloacae [45] it was 1 µg/mL (≈ 1.83 µM); with Enterobacter cloacae [46] it was greater than 4 µg/mL.
